Measurements as given in DBAASP.
In brackets after ≈: the same amount, converted by molar mass. Several values for one entry are separate records, joined by “and”; a condition that tells them apart may be missing. Equal values may be shown once. Blank lines part the entries; values can stand above or below the compound they belong to.

Experiments:
Assay in all cases: ≥ marks a high value that may be exact or a test limit, other limits are often not marked, values filed in µg/mL are converted to µM
[1] = test system: Batrachochytrium dendrobatidis JEL-197
[2] = test system: Candida albicans ATCC 90028
[3] = test system: Enterobacter cloacae NHTCC 53001
[4] = test system: Escherichia coli ATCC 25922
[5] = test system: Klebsiella pneumoniae KK3 9904
[6] = test system: Pseudomonas aeruginosa ATCC 27853
[7] = test system: Staphylococcus aureus NCTC 8325
[8] = test system: Candida albicans ATCC 10231
[9] = test system: Enterococcus faecalis NCTC 12697
[10] = test system: Escherichia coli ATCC BAA-2340
[11] = test system: Klebsiella pneumoniae ATCC 43816
[12] = test system: Klebsiella pneumoniae ATCC BAA-1705
[13] = test system: Pseudomonas aeruginosa ATCC 9027
[14] = test system: Staphylococcus aureus ATCC 12493
[15] = test system: Staphylococcus aureus ATCC 43300
[16] = test system: Staphylococcus aureus ATCC 6538
[17] = test system: Staphylococcus aureus B038 V1S1A
Staphylococcus aureus = test system: Staphylococcus aureus
[18] = test system: Aeromonas salmonicida CIP 103209T
[19] = test system: Bacillus megaterium CIP 51.17
[20] = test system: Enterococcus faecalis CIP 76.117
[21] = test system: Escherichia coli CIP 54.8
[22] = test system: Klebsiella pneumoniae CIP 52.145
[23] = test system: Listeria monocytogenes LME, Caen
[24] = test system: Pseudomonas aeruginosa CIP A22
[25] = test system: Salmonella typhimurium LME, Caen
[26] = test system: Staphylococcus aureus CIP 53.156
[27] = test system: Vibrio aestuarianus CIP 109791T
[28] = test system: Vibrio aestuarianus IFREMER
[29] = test system: Vibrio alginolyticus IFREMER
[30] = test system: Vibrio splendidus IFREMER
Vibrio splendidus LGP-32 = test system: Vibrio splendidus LGP-32
Vibrio splendidus SATMAR = test system: Vibrio splendidus SATMAR
[31] = test system: Vibrio vulnificus CIP 109783
[32] = test system: Aeromonas salmonicida NCIMB 1102
[33] = test system: Bacillus subtilis IAM 1026
[34] = test system: Escherichia coli JCM 1649
[35] = test system: Photobacterium damselae subsp. piscicida Sp 9587
Salmonella typhimurium = test system: Salmonella typhimurium
[36] = test system: Shewanella putrefaciens IAM 1509
[37] = test system: Staphylococcus aureus IAM 1011
[38] = test system: Vibrio anguillarum NCIMB 829
[39] = test system: Vibrio parahaemolyticus Vp+1

MIC [1]: ≥ 100 µM
Compound: CC[C@H](C)[C@H](NC(=O)CN)C(=O)N[C@@H](CC(C)C)C(=O)N[C@@H](CC(=O)O)C(=O)N[C@@H](CO)C(=O)N[C@@H](Cc1ccccc1)C(=O)N[C@@H](CCCCN)C(=O)N[C@@H](CC(=O)O)C(=O)N[C@H](C(=O)N[C@@H](C)C(=O)N[C@@H](CCCCN)C(=O)NCC(=O)N[C@H](C(=O)N[C@@H](C)C(=O)N[C@H](C(=O)N[C@@H](Cc1cnc[nH]1)C(=O)N[C@@H](CC(C)C)C(=O)N[C@@H](CC(C)C)C(=O)N[C@@H](CC(N)=O)C(=O)N[C@@H](CCSC)C(=O)N[C@@H](C)C(=O)N[C@@H](CCCCN)C(=O)N[C@H]1CSSC[C@@H](C(=O)O)NC(=O)CNC(=O)[C@H]([C@@H](C)O)NC(=O)[C@H](CCSC)NC(=O)[C@H](CCCCN)NC1=O)[C@@H](C)O)C(C)C)C(C)C [GILDSFKDVAKGVATHLLNMAKCKMTGC]

MIC [2]: ≥ 100 µM
MIC [3]: 6 µM (≈ 23.5 µg/mL)
MIC [4]: 3 µM (≈ 11.8 µg/mL)
MIC [5]: 6 µM (≈ 23.5 µg/mL)
MIC [6]: 3 µM (≈ 11.8 µg/mL)
MIC [7]: 25 µM (≈ 98 µg/mL)
Compound: CC[C@H](C)[C@H](NC(=O)[C@H](Cc1cnc[nH]1)NC(=O)[C@H](CCCCN)NC(=O)CNC(=O)[C@H](C)NC(=O)[C@@H](NC(=O)[C@H](CCCCN)NC(=O)[C@H](CC(C)C)NC(=O)[C@@H](NC(=O)CNC(=O)[C@H](CCCN=C(N)N)NC(=O)[C@H](Cc1ccccc1)NC(=O)[C@H](CC(C)C)NC(=O)[C@H](CO)NC(=O)[C@H](CCSC)NC(=O)[C@H](CC(C)C)NC(=O)CN)C(C)C)[C@@H](C)O)C(=O)N[C@@H](Cc1ccccc1)C(=O)N[C@@H](CCCCN)C(=O)N[C@@H](CC(N)=O)C(=O)N[C@H](C(=O)NCC(=O)NCC(=O)N[C@@H](CO)C(=O)N[C@@H](CC(C)C)C(=O)N[C@@H](CC(C)C)C(=O)N[C@@H](CC(=O)O)C(=O)N[C@@H](CCC(N)=O)C(=O)N[C@@H](C)C(=O)N[C@@H](CCCCN)C(=O)N[C@H]1CSSC[C@@H](C(=O)O)NC(=O)[C@H](CCC(=O)O)NC(=O)CNC(=O)[C@H]([C@@H](C)O)NC(=O)[C@H]([C@@H](C)CC)NC(=O)[C@H](CCCCN)NC1=O)C(C)C [GLMSLFRGVLKTAGKHIFKNVGGSLLDQAKCKITGEC]

MIC [8]: 128 µM (≈ 401 µg/mL)
MIC [2]: ≥ 100 µM
MIC [9]: 16 µM (≈ 50.1 µg/mL)
MIC [10]: 2 µM (≈ 6.26 µg/mL)
MIC [11]: 8 µM (≈ 25 µg/mL)
MIC [12]: 4 µM (≈ 12.5 µg/mL)
MIC [13]: 16 µM (≈ 50.1 µg/mL)
MIC [14]: 8 µM (≈ 25 µg/mL)
MIC [15]: 12.5 µM (≈ 39.1 µg/mL)
MIC [16]: 1.6 µM and 4 µM
MIC [17]: 2 µM (≈ 6.26 µg/mL)
MIC (Staphylococcus aureus): 4 µM (≈ 12.5 µg/mL)
Compound: CC[C@H](C)[C@H](NC(=O)[C@H](CCCCN)NC(=O)[C@@H](NC(=O)[C@H](CO)NC(=O)[C@H](CC(N)=O)NC(=O)[C@H](Cc1c[nH]c2ccccc12)NC(=O)[C@H](CC(C)C)NC(=O)CN)[C@@H](C)CC)C(=O)N[C@@H](C)C(=O)NCC(=O)N[C@@H](CCCCN)C(=O)N[C@@H](CCCCN)C(=O)N[C@@H](CC(C)C)C(=O)N[C@@H](Cc1ccccc1)C(=O)N[C@H](C(=O)N[C@@H](CC(N)=O)C(=O)N[C@H](C(=O)N[C@@H](CC(C)C)C(=O)N[C@@H](CC(=O)O)C(=O)N[C@@H](CCCCN)C(=O)N[C@H](C(=O)N[C@@H](CCCN=C(N)N)C(=O)N[C@H]1CSSC[C@@H](C(=O)O)NC(=O)CNC(=O)CNC(=O)[C@H](C)NC(=O)[C@H](C(C)C)NC(=O)[C@H](CCCCN)NC1=O)[C@@H](C)CC)C(C)C)C(C)C [GLWNSIKIAGKKLFVNVLDKIRCKVAGGC]

MIC [18]: 14.1 µM (≈ 23.6 µg/mL)
MIC [19]: 4.23 µM (≈ 7.07 µg/mL)
MIC [20]: ≥ 67.7 µM
MIC [21]: 4.23 µM (≈ 7.07 µg/mL)
MIC [22]: ≥ 33.9 µM
MIC [23]: 16.9 µM (≈ 28.3 µg/mL)
MIC [24]: ≥ 33.9 µM
MIC [25]: ≥ 33.9 µM
MIC [26]: 8.47 µM (≈ 14.1 µg/mL)
MIC [27]: 14.1 µM (≈ 23.6 µg/mL)
MIC [28]: 4.23 µM (≈ 7.07 µg/mL)
MIC [29]: 4.23 µM (≈ 7.07 µg/mL)
MIC [30]: 8.47 µM (≈ 14.1 µg/mL)
MIC (Vibrio splendidus LGP-32): 24.5 µM (≈ 40.9 µg/mL)
MIC (Vibrio splendidus SATMAR): 14.1 µM (≈ 23.6 µg/mL)
MIC [31]: ≥ 50 µM
Compound: CC(C)C[C@H](NC(=O)CNC(=O)[C@H](Cc1ccccc1)NC(=O)[C@H](Cc1ccccc1)NC(=O)[C@H](CC(C)C)NC(=O)CNC(=O)[C@H](Cc1ccccc1)NC(=O)[C@H](CC(C)C)NC(=O)[C@@H]1CCCN1C(=O)[C@H](CCCCN)NC(=O)[C@H](CCCCN)NC(=O)[C@H](CCCCN)NC(=O)[C@@H](N)CCCCN)C(=O)N[C@@H](Cc1ccccc1)C(=O)O [KKKKPLFGLFFGLF]

MIC [32]: 19.5 µM (≈ 50 µg/mL)
MIC [33]: 4.87 µM (≈ 12.5 µg/mL)
MIC [34]: 19.5 µM (≈ 50 µg/mL)
MIC [35]: 2.43 µM (≈ 6.25 µg/mL)
MIC (Salmonella typhimurium): 19.5 µM (≈ 50 µg/mL)
MIC [36]: 2.43 µM (≈ 6.25 µg/mL)
MIC [37]: 2.43 µM (≈ 6.25 µg/mL)
MIC [38]: 9.73 µM (≈ 25 µg/mL)
Compound: CC[C@H](C)[C@H](NC(=O)[C@H](C)NC(=O)CNC(=O)[C@@H](NC(=O)[C@@H](NC(=O)[C@H](CCC(N)=O)NC(=O)[C@@H]1CCCN1C(=O)[C@@H](NC(=O)[C@H](C)NC(=O)CNC(=O)[C@@H](NC(=O)[C@@H](NC(=O)[C@H](Cc1cnc[nH]1)NC(=O)[C@@H]1CCCN1C(=O)[C@H](CC(C)C)NC(=O)[C@H](CC(C)C)NC(=O)[C@@H]1CCCN1C(=O)[C@@H](NC(=O)[C@H](CC(C)C)NC(=O)[C@H](Cc1ccccc1)NC(=O)CNC(=O)[C@H](Cc1ccccc1)NC(=O)[C@@H](N)CC(C)C)[C@@H](C)CC)[C@@H](C)CC)[C@@H](C)CC)[C@@H](C)CC)C(C)C)[C@@H](C)CC)C(=O)N[C@@H](CCCN=C(N)N)C(=O)O [LFGFLIPLLPHIIGAIPQVIGAIR]
MIC [39]: 9.73 µM (≈ 25 µg/mL)
